# In the METLIN SMRT retention time set (Domingo-Almenara et al. 2019):
# Experiment: gradient 5% acetonitrile 3 min, to 50% in 2 min, to 85% in 15 min, held 3 min, 100 µL/min
# Details: column: Zorbax Extend-C18 2.1 x 50 mm; eluents: water / acetonitrile, 0.1% formic acid
# Summary of the method: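 A Zorbax Extend-C18 column (2.1 × 50 mm, 1.8 μm) run at 100 μL/min with water and acetonitrile, both containing 0.1% formic acid, separated mixtures of ~100 pure standards. The HPLC was coupled to a quadrupole time-of-flight mass spectrometer operated in positive and negative ionization mode, with dead and dwell volumes of 40 μL and 900 μL. Each retention time was taken from a computationally picked adduct peak that was then manually inspected.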
row,RP-LC retention time,SMILES
1,861 s,Cc1c(C(=O)C(=O)Nc2ccc3c(c2)OCCO3)c2ccccc2n1C
2,754 s,O=C(c1ccc2cc[nH]c2c1)N1C[C@@H]2C[C@H]1C[C@@H]2NS(=O)(=O)c1cccs1
3,750 s,Cc1cc(C)c(C#N)c(SCC(=O)Nc2nccs2)n1
4,1220 s,COc1ccc(-c2nnc(-c3ccc(C)c(S(=O)(=O)N4CCC(C)CC4)c3)o2)cc1
5,625 s,Oc1ccc2ccc3[nH]cnc3c2c1
6,861 s,CCN(CC)C(=O)Cn1nc(-c2nc(-c3ccc(F)cc3)no2)ccc1=O
7,601 s,O=C1CCSc2c1cccc2C(=O)N1CCOCC1
8,799 s,COc1ccccc1NS(=O)(=O)c1cc2c3c(c1)CCC(=O)N3CCC2
9,1010 s,O=c1c2cc(-c3ccc4c(c3)OCO4)nn2ccn1Cc1nc(-c2cccc(F)c2)no1
10,836 s,CCc1noc(NC(C)=O)c1-c1ccc(C)c(S(=O)(=O)N(CC)CC)c1
11,844 s,O=C(C1=CN(c2ccc(F)cc2)c2cc(Cl)ccc2S1(=O)=O)N1CCCC1
12,928 s,O=C(Cn1cc(-c2nc(-c3ccc(Cl)cc3)no2)ccc1=O)NC1CCCC1
13,865 s,CCN1C(=O)c2ccccc2Sc2cc(-c3noc(CNC(=O)c4ccco4)n3)ccc21
14,761 s,CCC(CO)Nc1ncnc2c1cnn2-c1ccc(C)c(Cl)c1 (stereo not given)
15,867 s,COc1ccc(CCC(=O)N2CCC3(CC2)C(=O)N(C)c2ccccc23)cc1
16,577 s,COc1cccc(-c2nc(NCc3ccncc3)ncc2C(=O)O)c1
17,1210 s,CCCN1C(=O)COc2ccc(-c3csc(NC(=O)COc4ccc(Cl)cc4Cl)n3)cc21
18,733 s,CCOc1ccc(CC(=O)NCCc2nc3cccnc3n2C)cc1
19,754 s,CC(C)Cn1nc2n(c1=O)CCN(S(=O)(=O)c1cccc3cccnc13)CC2
20,697 s,COc1ccc(CNC(=O)NC2CCN(c3ccc(F)cc3)C2=O)cc1 (stereo not given)
21,769 s,Cc1ccc(CNC(=O)C(C)Oc2cc(-c3ccccc3)c3c(C)nn(C)c3n2)o1 (stereo not given)
22,861 s,Cc1ccc(NC(=O)N2CCC[C@@H]2C(=O)NCc2csc(-c3ccccc3)n2)cc1C

row,RP-LC retention time,SMILES
1,673 s,CCOC(=O)N1CCN(C(=O)Cn2nc(-c3ccccc3)cc(N)c2=O)CC1
2,1270 s,Cc1ccc(-c2nc(NC(=O)CCCOc3ccccc3C)sc2C)cc1
3,624 s,CCC(O)c1nc2ccccc2n1CC(=O)N(C)c1ccccc1 (stereo not given)
4,687 s,Cn1c(=O)n(C)c2cc(CNc3ccc(C(=O)O)cc3)ccc21
5,1150 s,O=C(COc1ccccc1F)Nc1cc(C(F)(F)F)ccc1Cl
6,587 s,COc1ccc(CN2C[C@@H]3C(=O)N(C)C(=O)[C@@H]3C2)c(OC)c1
7,619 s,CCc1ccc(C(=O)c2cnc3ccc(OC)cc3c2N2CCN(CC)CC2)cc1
8,768 s,CCn1c(C)c(-c2nc(C3CC3)no2)c(S(=O)(=O)NCC2CCCO2)c1C (stereo not given)
9,908 s,Cc1ccc(Cc2nc(-c3ccnc(N4CCOCC4)c3)no2)cc1
10,600 s,COc1ccc2[nH]c(=O)c(CCC(=O)NCCN3CCCCCC3)cc2c1
11,876 s,COc1cc(NC(=O)c2noc3c2CCCC3)cc(OC)c1OC
12,921 s,CCc1csc(-c2ccc(N3CCN(C(=O)c4ccc(F)cc4)CC3)nc2)n1
13,812 s,CCc1ccc(CNC(=O)c2cc3n(n2)CC(C)(C(=O)NC2CCCC2)N(C)C3=O)cc1 (stereo not given)
14,898 s,Cc1ccc(CNc2cc(-n3cccn3)ncn2)cc1
15,919 s,Cc1ccc2c(c1)N(S(C)(=O)=O)CCC(C(=O)Nc1cc(Cl)ccc1C)O2 (stereo not given)
16,858 s,CCN(c1ccccc1)S(=O)(=O)c1ccc(C(=O)Nc2cc(C)nn2C(C)C)cc1
17,561 s,CCC(=O)N1CC(=O)N(CC)C2(CCOCC2)C1
18,611 s,O=C(Nc1ccc2c(c1)OCCO2)N1CCCCCC1CN1CCOCC1 (stereo not given)
19,792 s,O=C(Cc1ccsc1)NCCC1CCN(C(=O)Nc2ccccc2)CC1
20,594 s,Cc1nn(-c2ccc(N3CCCCC3)nn2)c(C)c1CCC(=O)N1CCN(c2ccccn2)CC1
21,1120 s,CCCCn1cc(S(=O)(=O)N2CCN(c3ccccc3)CC2)c2cccnc21
22,1130 s,COc1ccc(N2CCN(S(=O)(=O)c3cc(-c4csc(C)n4)ccc3C)CC2)cc1

row,RP-LC retention time,SMILES
1,1100 s,COc1ccc(-c2ncc3c(n2)CCN(S(=O)(=O)c2ccc(Cl)cc2)C3)cc1
2,831 s,O=S(=O)(c1cccn2c(SCc3cccc(F)c3)nnc12)N1CCCC1
3,754 s,CCc1nc(N2CCC(C(=O)NCc3ccccc3C(F)(F)F)CC2)c2c(C)scc2n1
4,1090 s,O=C(NCc1nc(-c2ccc(-c3csc(-c4ccccc4)n3)cc2)no1)c1ccco1
5,674 s,O=C(CN1C(=O)CCC1=O)NC1CCCC(OC(=O)Nc2ccc(F)cc2)C1 (stereo not given)
6,700 s,CCOC(=O)C(=O)NCC1CCCN1S(=O)(=O)c1ccc(OC)cc1 (stereo not given)
7,710 s,O=C(NCc1ccccc1F)C1CCCN(c2nnc3c(Cl)cccn23)C1 (stereo not given)
8,664 s,CC(=O)Nc1ccc(C(=O)N2CCC3(CC2)N=C(c2ccccc2)NO3)cc1
9,936 s,CC(C)c1cc(C(=O)Nc2ccc(Cl)cc2)nn1C1CCS(=O)(=O)C1 (stereo not given)
10,561 s,COc1ccccc1-c1[nH]ncc1CN1CCC2(CC1)CC(O)CCO2 (stereo not given)
11,562 s,CCOC(=O)c1ccc(N2CCCC2)nn1
12,889 s,CCc1nc(OCC(=O)Nc2cccc(Br)c2)c2ccccc2n1
13,776 s,O=C(CCNc1c(-c2cccc(F)c2)nc2cnccn12)NCc1ccc(F)cc1F
14,838 s,O=C(CN1C(=O)CCCc2cc(S(=O)(=O)N3CCCC3)ccc21)N1CCc2ccccc2C1
15,746 s,O=C(CCC1CCCC1)Nc1c2c(nn1-c1cccc(Cl)c1)CS(=O)C2 (stereo not given)
16,735 s,CCCn1cnc2ccc(-c3noc(C4CC(=O)N(c5ccc(C)cc5)C4)n3)cc21 (stereo not given)
17,548 s,O=C(NCc1ccccn1)c1ccc2c(c1)nc1n2CCCCC1
18,560 s,COCCCNC(=O)C1(CCO)CCN(Cc2ccccc2)C1 (stereo not given)
19,967 s,Cc1ccc(CNC(=O)C2(C)CCCN(C(=O)Nc3cccc(C)c3)C2)cc1 (stereo not given)
20,892 s,Cc1nnc2ccc(S(=O)(=O)N(Cc3ccc(F)cc3)c3ccc(F)cc3)cn12
21,749 s,N#Cc1cc(NC(=O)c2ccc3c(c2)OCO3)ccc1N1CC2CC(C1)c1cccc(=O)n1C2 (stereo not given)
22,671 s,c1cc(CN2CC(Oc3ccc(-c4noc(C5CCOCC5)n4)cc3)C2)cs1

row,RP-LC retention time,SMILES
1,619 s,CCC(C(=O)N1CCN(CC)CC1)n1c2ccccc2c2cnn(C)c(=O)c21 (stereo not given)
2,713 s,O=C(Cn1nc2n(c1=O)CCCCC2)Nc1ccccc1C(F)(F)F
3,578 s,CCNC(=O)NC1CCN(C(=O)C2CCC2)C1 (stereo not given)
4,763 s,Cc1ccc(C)c(NC(=O)CCc2nc(N3CCOCC3)c3c(C)noc3n2)c1
5,699 s,Cn1cc2c(N3CCSCC3)nc(C(=O)NCc3ccc(N4CCCC4)cc3)nc2n1
6,1230 s,CCCn1nnc(NCc2ccc(-c3ccc(Br)cc3Br)o2)n1
7,811 s,CN1C(=O)c2cc(C(=O)NCCC3=CCCCC3)nn2CC1(C)C(=O)NCc1ccc(F)cc1 (stereo not given)
8,907 s,CCn1ccc2c(cc(C(=O)Nc3ccc(C)c(Cl)c3)n2C)c1=O
9,999 s,COc1cccc(-c2ccc(=O)n(CCc3nc(-c4ccc(C)cc4)no3)n2)c1
10,946 s,Cc1ccc(NC(=O)Cn2c(=O)n(-c3ccc(F)cc3)c(=O)c3c2cc(C)n3C)c(Cl)c1
11,777 s,COc1ccc(CNC(=O)C2CCc3nc(N4CCOCC4)ncc3C2)cc1 (stereo not given)
12,572 s,CCOC(=O)C1=C(N)Oc2cc(C)n(CCN(C)C)c(=O)c2C1c1ccccc1 (stereo not given)
13,731 s,Cc1ccc(NC(=O)C2CCc3nc(N4CCOCC4)ncc3C2)c(F)c1 (stereo not given)
14,806 s,O=C(Nc1ccc(F)cc1F)N1CCC(n2cnc3cc(Cl)ccc3c2=O)CC1
15,668 s,CCOc1ccc(N2CC(CNC(=O)Nc3cc(OC)c(OC)c(OC)c3)CC2=O)cc1 (stereo not given)
16,767 s,Cc1nnc(-c2cc(C)n(CC(=O)Nc3cccc(C)c3C)c2C)o1
17,838 s,CCn1c(=O)c(N2CCC(NC(=O)NCc3ccccc3)CC2)nc2ccccc21
18,602 s,CC(C)NS(=O)(=O)c1ccc(NC(=O)Cn2cncn2)cc1
19,1170 s,CCOC(=O)N1CCN(c2nc(F)c3c(c2F)S(=O)(=O)CCN3C2CCCCC2)CC1
20,896 s,O=C(CCn1nnc2cc(-c3noc(-c4ccccc4Br)n3)ccc21)N1CCOCC1

row,SMILES,RP-LC retention time
1,C=CCN1CC[C@]2(C)c3cc(O)ccc3CC1[C@@H]2C,594 s
2,CCOC(=O)c1cc2c(cn1)[nH]c1ccccc12,691 s
3,Cc1cc(OC(C)C(=O)N[C@H](C(=O)O)C(C)C)c2c3c(c(=O)oc2c1)CCCC3 (stereo not given in full),865 s
4,Oc1ccc2c3c1O[C@H]1c4oc5ccccc5c4C[C@@]4(O)[C@@H](C2)N(CC2CC2)CC[C@]314,673 s
